Consider three compounds from patent US20240369539A1, “AN ADHERENT CELL CULTURE METHOD FOR GENERATING TIGHT JUNCTION BETWEEN CELLS AND ITS PRODUCT APPLICATION” (ZHEJIANG UNIVERSITY, priority 2021, published 2024).

Data set [1] relates to in vitro blood-brain barrier model (membranous cell sheet formed by endothelial cells). Description: test of a blood-brain barrier toxic drug on the in vitro blood-brain barrier model. The conditions noted are these: FIG. 20. Here is the method:
A test of a blood-brain barrier toxic drug is carried out to determine the response of the blood-brain barrier model constructed in the embodiment to the blood-brain barrier toxic drug.

For data set [2] the test system is unchanged.

In the case of `CN[C@@H](C)Cc1ccccc1` [methamphetamine], the “barrier function of the blood-brain barrier model” value in data set [1] (after self-recovery for 24 hours following drug treatment) is “significantly improved”; in data set [1] (after treatment with the blood-brain barrier toxic drug), “significantly reduced”.

In the case of `NCCc1ccc(O)c(O)c1` [dopamine], the “content detected in the lower chamber” value in data set [2] is “the content of the L-dopamine detected in the lower chamber is significantly higher than that of the dopamine”.

As to `N[C@@H](Cc1ccc(O)c(O)c1)C(=O)O` [L-dopamine], the “content detected in the lower chamber” value in data set [2] was “significantly higher than that of the dopamine”.
